Assay results from patent publication EP0103895A2, “Novel hydroxylamine derivatives, production and use thereof” (MEIJI SEIKA KABUSHIKI KAISHA, priority 1982, dated 1984).
“And” between values parts separate entries of the source, which are not always exact repeats. Equal values may be shown once. Read-outs that look alike come from different tables or passages of the source.

Tests used:
[1] = test system: fowl roundworm (Ascaridia galli); assay: Anthelmintic test in chickens artificially infected with fowl roundworm, single oral dose in gelatin capsule, worm bodies counted within 48 hours (Test Examples A1, B1, C1, D1); assay type: in vivo; conditions: for inhibition in vivo at 30 mg/kg / inhibition in vivo at 50 mg/kg / inhibition in vivo at 15 mg/kg: Ascaridia galli, po, 48 h, read-out: Anthelmintic effect after 48 hours; for inhibition in vivo at 15 mg/kg: 15 mg/Kg oral in gelatin capsule
Protocol: Chickens infected artificially with fowl roundworm (Ascaridia galli) were employed in groups each consisting of three chickens. Fecal matter testing was conducted before administration of medicine to confirm infection with the worm. The quantity of the compound provided for testing was 10 mg and 20 mg per Kg of body weight, which was orally administered each in a gelatin capsule to the chicken. The number of worm bodies discharged within 48 hours after administration of medicine was counted, the chicken was killed after 48 hours and the number of worm bodies remaining in the enteron was counted to determine the anthelmintic percentage, wherefrom the antihelmintic effect was judged.
The same as that in Test Example Al.
The same as that in Test Example Al except that the compound provided for testing was in quantities of 30 mg and 50 mg per Kg of body weight, which were orally administered to the chickens in gelatin capsules.
The same as that in Test Example Al, except that the compounds provided for testing were used in quantities of 15 mg and 30 mg per Kg of body weight, which were orally administered each in a gelatin capsule to the chicken.

[2] = test system: fowl roundworm (As. galli); assay: Anthelmintic test in chickens artificially infected with fowl roundworm, compound added to feed, E.P.G. and worm count up to 21st day (Test Examples A2, B2, C2, D2); assay type: in vivo, Ascaridia galli; conditions: for Change of E.P.G. Before administration: baseline
Protocol: Chickens artificially infected with fowl roundworm (As. galli) were employed in groups each of two chickens.
Fecal matter testing was conducted before initiation of the test and on the 7th, 14th and 21st day after initiation of the test. Reduction in worm egg number was examined by calculating E.P.G. (worm eggs per 1 g of fecal matter), and the number of discharged worm bodies and the number of worm bodies remaining in the enteron when the chicken was killed on 21st day were counted to determine the anthelmintic percentage, from which the anthelmintic effect was judged.

[3] = test system: canine filaria; Dirofilaria immitis; assay: Test of anthelmintic effect against canine filaria in naturally infected dogs, subcutaneous injection, microfilaria in blood and adult filaria at autopsy (Test Examples A10, B10, C10, D10); assay type: in vivo
Protocol: Eight dogs infected with canine filaria; Diro- filaria immitis (naturally infected dogs) were employed in groups each of two dogs.
The compounds provided for tests were Compound Nos. Al, A3 and A12. 20 mg of each was administered by subcutaneous injection per Kg of body weight to each of the two dogs as a suspension in 1% "Tween 80" solution once per day for three days. As control, 3 ml of the 1% "Tween 80" solution was subcutaneously injected into two dogs once per day for three days.
Before administration and on the 10th day after administration, 20 µl of earlobe blood of each dog was sampled and examined to determine the change in microfilaria (mf) according to the concentrated smear color method, and judgement on the effect on microfilaria (mf) was made. Judgement relating to adult filaria was made on the 10th day after the last administration by killing the dogs and carrying out autopsis.
30 mg of each compound was administered by subcutaneous injection per Kg of body weight to each of the two dogs as a suspension in 1% "Tween 80" solution once per day for three days. As control, 3 ml of the 1% "Tween 80" solution was subcutaneously injected into two dogs once per day for three days.
30 mg of each compound was administered by subcutaneous injection per Kg of body weight to each of two dogs as a suspension in 1% "Tween 80" solution once per day for three days. As control, 3 ml of the 1% "Tween 80" solution was subcutaneously injected to two dogs once per day for three days.
20 mg of each compound was administered by subcutaneous injection per kg of body weight once per day for three days to each of two dogs. These compounds were administered as a suspension in 1% "Tween 80" in the case of Compound No.Dl3 and as solutions dissolved in distilled water for injection in the case of Compounds Nos. D10 and D16, respectively. As control, 3 ml of the 1% "Tween 80" solution was subcutaneously injected into two dogs once per day for three days.

[4] = chickens, 30 mg/Kg orally in gelatin capsule, one value per chicken (No.1-3)
[5] = chickens, 50 mg/Kg orally in gelatin capsule, one value per chicken (No.1-3)
[6] = chickens, 20 ppm added to feed, one value per chicken
[7] = chickens, 50 ppm added to feed, one value per chicken
[8] = chicken, 30 mg/Kg oral in gelatin capsule, chickens No.1-3
[9] = Ascaridia galli, feed or water, 504 h, chicken, 25 ppm in feed, read-out: Anthelmintic effect
[10] = Ascaridia galli, feed or water, 504 h, chicken, 50 ppm in feed, read-out: Anthelmintic effect

For C=CCN(OC)C(=O)CCC [Compound B3, N-allyl-N-butylyl-O-methylhydroxylamine], the “Anthelmintic effect after 48 hours” value [1, 4] was “+++ (100%)”, the “Anthelmintic effect after 48 hours” value [1, 5] was “+++ (100%)” and the anthelmintic effect ([2]; chickens, 20 ppm added to feed, worm count on 21st day, one value per chicken) was “++ (80 - 90%)”. For the same compound, the “Change of E.P.G. Before administration” value [2, 6] was 5,600 E.P.G. and 7,900 E.P.G, the “Change of E.P.G. 7th day” value [2, 6] was 3.100 E.P.G. and 3,000 E.P.G and the anthelmintic effect ([2]; chickens, 50 ppm added to feed, worm count on 21st day, one value per chicken) was “+++ (100%)”. For the same compound, the “Change of E.P.G. Before administration” value [2, 7] was 10,700 E.P.G. and 14,300 E.P.G and the “Change of E.P.G. 21st day” value [2, 7] was 0 E.P.G.
For C=CCN(OCC)C(=O)CCC [Compound B10, N-allyl-N-butylyl-0-ethylhydroxylamine], the inhibition in vivo at 30 mg/kg [1, 4] was 100% and the inhibition in vivo at 50 mg/kg [1, 5] was 100%.
In the case of C=CCNOCC=C [Compound D4], the inhibition in vivo at 15 mg/kg ([1]; chicken, chickens No.1-3) is reported as 80 to 90%, the inhibition in vivo at 30 mg/kg [1, 8] is reported as 100% and the inhibition in vivo at 25 ppm [2, 9] is reported as 80 to 90%. The inhibition in vivo at 50 ppm [2, 10] was 100%.
In the case of C=CCONCC=CC [Compound D8], the inhibition in vivo at 15 mg/kg ([1]; chicken, chickens No.1-3) is reported as 80 to 90% and the inhibition in vivo at 30 mg/kg [1, 8] is reported as 100%.
With C=CCN(OCC)C(=O)c1ccccc1 [Compound B13, N-allyl-N-benzoyl-0-ethylhydroxylamine] the inhibition in vivo at 30 mg/kg [1, 4] was 100% and the inhibition in vivo at 50 mg/kg [1, 5] was 100%.
C=CCON(C=O)CC=C [Compound C8] gave an inhibition in vivo at 30 mg/kg [1, 8] of 100%, an inhibition in vivo at 50 mg/kg ([1]; chicken, 50 mg/Kg oral in gelatin capsule, chickens No.1-3) of 100% and an inhibition in vivo at 25 ppm [2, 9] of 100%. For the same compound, the inhibition in vivo at 50 ppm [2, 10] was 100%, the “Change of E.P.G. 21st day” value ([2]; chicken, 25 ppm in feed) was 0 and the “Change of E.P.G. 21st day” value ([2]; chicken, 50 ppm in feed) was 0.
C=CCN(C=O)OCC [Compound B15, N-allyl-N-formyl-O-ethylhydroxylamine] showed an inhibition in vivo at 30 mg/kg [1, 4] of 100%, an inhibition in vivo at 50 mg/kg [1, 5] of 100% and an inhibition in vivo at 20 ppm ([2]; Ascaridia galli, po, 504 h, chickens, 20 ppm added to feed, worm count on 21st day, one value per chicken, read-out: Anthelmintic effect) of 80 to 90%. The inhibition in vivo at 50 ppm ([2]; Ascaridia galli, po, 504 h, chickens, 50 ppm added to feed, worm count on 21st day, one value per chicken, read-out: Anthelmintic effect) was 100%.
With CC=CCNOCC [Compound D7] the inhibition in vivo at 30 mg/kg [1, 8] was 100%.
With C=CCN(OCC)C(=O)CC [Compound B9, N-allyl-N-propionyl-O-ethylhydroxylamine] the inhibition in vivo at 30 mg/kg [1, 4] was 100%, the inhibition in vivo at 50 mg/kg [1, 5] was 100% and the inhibition in vivo at 30 mg/kg ([3]; Dirofilaria immitis, sc, 240 h, dogs, administration of 30 mg/Kg repeated three times, given as about 50% or more, read-out: anthelmintic effect against adult filaria) was ≥ 50%. The “Number of microfilaria/20 µl on 10th day after the last administration” value ([3]; dog, 30 mg/Kg x 3, subcutaneous injection, suspension in 1% Tween 80) was 0 /20 µl, the “Effect on adult filaria: Number of worms killed/ Total parasite” value ([3]; dog, 30 mg/Kg x 3, subcutaneous injection, 30 mg/kg) was 5/7 and 4/8 and the “anthelmintic effect against microfilaria (mf)” value ([3]; dogs, administration of 30 mg/Kg repeated three times) was “marked anthelmintic effect”.
For C=CCN(OCC)C(=O)CCCCCCCCCCCCCCCCC [Compound B12, N-allyl-N-stearoyl-O-ethylhydroxylamine], the inhibition in vivo at 30 mg/kg [1, 4] was 100% and the inhibition in vivo at 50 mg/kg [1, 5] was 100%.
C#CCNOCC=C [Compound D13, N-propargyl-O-allylhydroxylamine] gave an inhibition in vivo at 15 mg/kg ([1]; chicken, chickens No.1-3) of 80 to 90%, an inhibition in vivo at 30 mg/kg [1, 8] of 100% and an inhibition in vivo at 20 mg/kg ([3]; Dirofilaria immitis, sc, 240 h, dog, 20 mg/Kg x 3, subcutaneous injection, read-out: Effect on adult filaria: Percent of worms killed) of 63%. For the same compound, the inhibition in vivo at 20 mg/kg ([3]; Dirofilaria immitis, sc, 240 h, dogs, administration of 20 mg/Kg repeated three times, given as about 50% or more, read-out: anthelmintic effect against adult filaria) was ≥ 50%, the “Number of microfilaria/20µl On 10th day after the administration” value ([3]; dog, 20 mg/Kg x 3, subcutaneous injection) was 0 /20µl and the “Effect on adult filaria: Number of worms killed/ Total parasite” value ([3]; dog, 20 mg/Kg x 3, subcutaneous injection, 20 mg/kg) was 21/33 and 20/30. For the same compound, the “Number of microfilaria/20µl Before administration” value ([3]; dog, before 20 mg/Kg x 3 subcutaneous injection (baseline)) was 33 /20µl and 26 /20µl and the “anthelmintic effect against microfilaria (mf)” value ([3]; dogs, administration of 20 mg/Kg repeated three times) was “marked anthelmintic effect”.
In the case of C#CCNOCCC [Compound D11], the inhibition in vivo at 30 mg/kg [1, 8] is reported as 100%.
